Results as given in patent publication US20130253037A1, “AURORA A KINASE EFFECTORS” (PURDUE RESEARCH FOUNDATION, priority 2010, published 2013).
Positions count from the first letter of the chain named. Entries after “also recorded” stand apart in the source; their conditions may differ. Blank lines part the entries; values can stand above or below the compound they belong to.

Legend:
MDA cells = experiment: Western blot of LIMK2 and Aurora A levels after MLN8237, MDA cells; assay type: cell-based
Experimental: FIG. 11A-11F Aurora A and LIMK2 positive feedback loop is a common feature in several cancers. […] PC3 cells were transfected with scrambled shRNA (lane 1) or Aurora A-shRNA2 (lane 2) and Aurora A and LIMK2 levels analyzed after 30 h. […] FIG. 11C is a western blot showing that Aurora A ablation in HCT116 and PaCa2 cells depletes LIMK2. HCT116 and PaCa2 cells were transfected with scrambled shRNA (lanes 1 and 3) or Aurora A-shRNA2 (lanes 2 and 4) and Aurora A and LIMK2 levels analyzed. […] FIG. 11E is a western blot showing that LIMK2 acts as a pharmacodynamic biomarker for Aurora A kinase activity. Aurora A was inhibited using 0.5 μM MLN8237 in MDA cells and Aurora A, LIMK2 and actin levels analyzed. […] MDA cells were incubated with MLN8237 (0.5 μM and 1 μM) or the vehicle (DMSO). After 48 h, cells were analyzed using MTT assay. p*<0.05, when compared to the control.
(§1) AA-MDA and AA-as7 MDA cells were treated with either DMSO or 1-NM-PP1 (250 nM) for 12 h, followed by cell lysis. For MLN8237 experiment, MDA cells were treated with 1 μM MLN8237 for 12 h.
(§2) Cells were harvested and lysed in modified RIPA buffer, supplemented with protease inhibitors. Equal amounts of cell extracts were then used to conduct western blot.
Over a dozen Aurora A targeted drugs are in clinical trials. […] Aurora A was inhibited using MLN8237 and LIMK2 levels analyzed.

[1] = tested on: HA-tagged LIMK2 in MDA cells; experiment: Gel shift / Western blot of HA-tagged LIMK2 and mutants in MDA cells after MLN8237; assay type: cell-based; details: additional 12 h
Experimental: FIGS. 8A-8D. Aurora A phosphorylates LIMK2 at 5283, T494 and T505 which increases its protein stability. […] 6-His-tagged wild type, (S283A) LIMK2, (T494A) LIMK2 and (T505A) LIMK2 mutants were phosphorylated using Aurora A/TPX2 and [^32P] ATP for 15 min and the products were separate by electrophoresis. […] Nucleic acids sequence encoding HA-tagged (S283A) LIMK2, (T494A) LIMK2, and (T505A) LIMK2 were transfected in MDA cells. After 30 h, cells were incubated with 0.5 μM MLN8237 for additional 16 h. Gel shift assay was performed using 10% SDS PAGE. Protein levels were analyzed using HA and actin antibodies. FIG. 8C is a western blot showing Aurora A promotes LIMK2 stability by phosphorylating S283, T494 and T505. Nucleic acids sequences encoding HA-tagged wt LIMK2, (S283A, T494A) LIMK2 (2A) and (S283A, T494A, T505A) LIMK2 (3A) were transfected in MDA cells. After 30 h, protein levels were analyzed using Aurora A, HA and actin antibodies. […] Wild type, double (2A) and triple (3A) mutants of LIMK2 were transfected in MDA cells along with 6-His Ubiquitin and LIMK2 ubiquitination analyzed.
Aurora A inhibits LIMK2 degradation by directly phosphorylating it at Ser283, Thr494 and Thr505: Since Aurora A regulates LIMK2 by phosphorylation (FIG. 6A), we set to identify Aurora A-mediated phosphorylation sites on LIMK2. Aurora A preferentially phosphorylates R/K/N-R-X-S/T-B, where B denotes any hydrophobic residue except Pro (Ferrari et al. (2005) Biochem. J. 390, 293-302). […] S283A, T494A and T505A LIMK2 alleles were generated and their phosphorylation analyzed in vitro. Aurora A phosphorylates LIMK2 at all these sites (FIG. 8A). […]
To confirm these findings, HA-tagged LIMK2 double mutant (S283A, T494A) and HAtagged LIMK2 triple mutant (S283A, T494A, T505A) were generated and transfected in MDA cells. […] After 24 h, Aurora A was inhibited using MLN8237 for an additional 12 h, and LIMK2 levels analyzed using HA antibody.

[2] = tested on: wild-type Aurora A-expressing NIH3T3 cells; experiment: Soft agar colony formation, wild-type Aurora A-NIH3T3 cells; assay type: cell-based; details: 0.5 μM (identical conditions)
Experimental: (§3) Briefly equal volumes of nobel agar (1%, DNA grade) and 2×RPMI 1640 (with 20% FBS) were mixed at 40° C. to make 0.5% agar in six-well tissue culture plates (Corning) as a base agar. Cells (0.1 ml of 2.0×10^5/ml) were suspended in 3 mL of 2×RPMI 1640 (with 20% FBS) and 3 ml of 0.7% agar. 1.5 ml of this suspension was added to each well (as 0.35% top agar) with final concentration of 5,000 cells per well. Top agar was covered with 500 μl of culture media. Plates were incubated at 37° C. for 3 to 4 weeks. Fresh media was added every three days.
(§4) For 1-NM-PPI experiments, fresh media containing 1-NM-PP1 (100 nM) or DMSO were added to the cells every 3 days. Colony formation was observed by light phase-contrast microscope and visually after staining with 0.5 ml of 0.01% crystal violet in PBS for 45 min at room temperature. Experiments were repeated in quadruplicate, two independent times to ensure the reproducibility of the results.

AA-as7-NIH3T3 cells = experiment: Soft agar colony formation, AA-as7-NIH3T3 cells; assay type: cell-based; details: 0.5 μM
Experimental: as §3, §4

[3] = target: T1, AA-as7 kinase (Aurora A LI85V, L201G) (Mus musculus, UniProt P97477, L185V/L201G); experiment: In vitro kinase assay with AA-as7 and TPX2; assay type: biochemical, murine
T1 construct: the Aurora A mutant is the double mutant Aurora A (AA-as7); 6-His; made in house; host or cells: Sf9 insect cells (baculovirus, Bac-to-Bac)
T1 sequence (P97477 1-395 L185V/L201G): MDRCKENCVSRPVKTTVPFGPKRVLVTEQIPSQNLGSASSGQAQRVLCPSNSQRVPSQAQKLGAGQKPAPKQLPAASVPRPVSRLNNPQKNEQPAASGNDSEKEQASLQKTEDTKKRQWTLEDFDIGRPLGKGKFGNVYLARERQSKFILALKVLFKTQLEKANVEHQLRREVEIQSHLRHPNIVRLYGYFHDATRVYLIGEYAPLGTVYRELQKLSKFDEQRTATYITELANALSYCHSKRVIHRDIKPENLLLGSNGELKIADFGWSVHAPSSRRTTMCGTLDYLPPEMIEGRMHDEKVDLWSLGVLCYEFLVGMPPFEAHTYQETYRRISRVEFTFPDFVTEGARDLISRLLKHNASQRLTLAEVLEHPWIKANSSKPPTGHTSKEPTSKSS
Experimental: (§5) For in vitro labeling, Aurora A/TPX2 complex (on beads) was pre-incubated with 10 μM cold ATP for 10 min to activate the kinase. The beads were washed twice with kinase buffer, and then subjected to kinase assay with 2-5 μg of recombinant protein (such as PHLDA) and 1 μCi of [γ-^32P] ATP. Reactions were terminated by adding SDS sample buffer, separated by SDS-PAGE gel, transferred to PVDF membrane and exposed to Biomax MS film. Aurora A kinase assays were conducted using 1 μCi of [γ-^32P] ATP and 3 μg of Aurora A substrate peptide in a final volume of 30 μl at 30° C. as reported before (Sun, et al, (2008a) Mol. Biol. Cell 19, 3052-3069).
(§6) IC50 values were determined by fitting the data to a sigmoidal dose response curve using GraphPad Prism 4.0 software. Km and Vmax values were derived from the assay described above using various concentrations of AA peptide substrate and ATP. Km and Vmax values were determined using GraphPad Prism 4.0 software.

AA-as7-MDA cells = experiment: Western blot of protein levels after 1-NM-PP1, AA-as7-MDA cells; assay type: cell-based; details: for Aurora A levels: AA-as7-MDA cells treated with inhibitor
Experimental: Aurora A can regulate its substrates using either its kinase activity or scaffolding function. Therefore, to dissect the mechanism further, AA-MDA and AA-as7-MDA were treated with 1-NM-PP1 for 12 h and PHLDA1 expression analyzed.
as §1, §2
Aurora A-mediated phosphorylation of its substrates often promotes their degradation (e.g. p53, PHLDA1) or stabilization (ASAP1). Therefore, we investigated whether Aurora A exerts control over LIMK2 level. Aurora A was transiently depleted in MDA cells using two different shRNAs, causing concomitant decrease in LIMK2 level (FIG. 6A). Wild-type and mutant AA (AA-as7) were stably overexpressed in MDA cells (AA-MDA and AA-as7-MDA cells respectively), leading to considerable increase in LIMK2 levels (FIG. 6B), thereby confirming that Aurora A positively regulates LIMK2 levels. Aurora A can regulate its substrates using either its kinase activity or scaffolding function. Aurora A regulates p53 levels by phosphorylation, but regulates ASAP levels through the scaffolding function. Therefore, to dissect the mechanism by which Aurora A regulates LIMK2, AA-MDA and AA-as7-MDA cells were treated with 1-NM-PP 1 for 12 h and LIMK2 expression analyzed.

wild-type Aurora A = target: T2, wild-type Aurora A (Mus musculus, UniProt P97477); experiment: In vitro kinase assay with wild-type Aurora A and TPX2; assay type: biochemical, murine
T2 construct: 6-His; made in house; host or cells: Sf9 insect cells (baculovirus, Bac-to-Bac)
T2 sequence (P97477 1-395): T1 sequence (P97477 1-395 L185V/L201G) with V185L, G201L
T2 sequence (Q9ULW0 1-747 partner): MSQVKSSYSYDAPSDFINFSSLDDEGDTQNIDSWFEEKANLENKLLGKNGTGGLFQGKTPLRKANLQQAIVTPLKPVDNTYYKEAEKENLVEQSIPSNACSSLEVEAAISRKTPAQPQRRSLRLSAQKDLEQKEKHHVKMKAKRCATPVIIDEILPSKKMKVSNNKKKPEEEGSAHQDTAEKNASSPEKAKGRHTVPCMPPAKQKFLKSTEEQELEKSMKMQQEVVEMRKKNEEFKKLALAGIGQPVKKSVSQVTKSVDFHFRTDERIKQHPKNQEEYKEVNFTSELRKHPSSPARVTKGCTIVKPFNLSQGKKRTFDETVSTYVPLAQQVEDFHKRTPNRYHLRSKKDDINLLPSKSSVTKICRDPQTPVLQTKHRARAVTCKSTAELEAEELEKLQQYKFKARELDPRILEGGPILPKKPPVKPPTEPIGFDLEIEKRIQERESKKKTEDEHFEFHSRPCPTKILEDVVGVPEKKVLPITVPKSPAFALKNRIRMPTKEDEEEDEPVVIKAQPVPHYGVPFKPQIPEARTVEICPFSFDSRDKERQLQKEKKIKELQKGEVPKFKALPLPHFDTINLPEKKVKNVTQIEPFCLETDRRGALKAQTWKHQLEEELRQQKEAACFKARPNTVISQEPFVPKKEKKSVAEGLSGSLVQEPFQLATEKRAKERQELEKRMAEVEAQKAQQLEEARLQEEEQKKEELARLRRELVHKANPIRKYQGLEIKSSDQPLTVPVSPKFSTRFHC
Experimental: as §5, §6

[4] = target: Aurora B-as7 (L138V, L154G-AB) kinase (Homo sapiens, UniProt Q96GD4, L138V/L154G); experiment: In vitro kinase assay with AB-as7; assay type: biochemical; details: phosphodonor as labelled
Chain of Aurora B-as7 (L138V, L154G-AB) kinase (Q96GD4 whole entry L138V/L154G): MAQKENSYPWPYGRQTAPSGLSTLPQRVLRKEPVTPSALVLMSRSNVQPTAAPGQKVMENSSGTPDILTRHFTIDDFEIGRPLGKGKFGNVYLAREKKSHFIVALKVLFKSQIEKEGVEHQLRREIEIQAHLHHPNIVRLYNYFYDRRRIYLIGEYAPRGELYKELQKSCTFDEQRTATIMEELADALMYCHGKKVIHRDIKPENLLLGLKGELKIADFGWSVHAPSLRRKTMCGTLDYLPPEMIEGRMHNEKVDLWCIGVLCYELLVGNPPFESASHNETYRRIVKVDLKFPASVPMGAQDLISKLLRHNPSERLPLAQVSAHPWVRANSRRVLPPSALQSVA

wild-type Aurora B = wild-type Aurora B (Homo sapiens, UniProt Q96GD4); experiment: In vitro kinase assay with wild-type Aurora B; assay type: biochemical
Chain of wild-type Aurora B (Q96GD4 whole entry): as the sequence (Q96GD4 whole entry L138V/L154G) above, with V138L, G154L counted along it

[5] = AA-as7, phosphodonor as labelled

SMILES: COc1cc(Nc2ncc3c(n2)-c2ccc(Cl)cc2C(c2c(F)cccc2OC)=NC3)ccc1C(=O)O [MLN8237]
Aurora A levels (MDA cells): reduced | LIMK2 levels (MDA cells): depleted LIMK2 levels; also recorded: reduced | phospho-levels and protein levels of wt LIMK2 and (S283A, T494A) LIMK2 [1]: decreased | phosphorylation level (top band) and overall protein level of LIMK2 single mutants (S283A, T494A, T505A) [1]: decreased | protein and phospho-levels of LIMK2 triple mutant (S283A, T494A, T505A) [1]: remained unchanged

IC50 ([3]; AA-as7 kinase): 1.7 nM | inhibition of wild-type Aurora A (wild-type Aurora A; even at higher concentrations): does not inhibit
SMILES: CC(C)(C)n1nc(Cc2cccc3ccccc23)c2c(N)ncnc21 [1-NM-PP1]
colony formation in soft agar [2]: robust colony formation | colony formation in soft agar (AA-as7-NIH3T3 cells): completely inhibited colony formation | LIMK2 level (AA-as7-MDA cells; 250 nM, 12 h, AA-as7-MDA cells): significant decrease; also recorded: reduces LIMK2 levels | PHLDA1 level (AA-as7-MDA cells; 12 h, AA-as7-MDA cells): increased | Aurora A levels (AA-as7-MDA cells): reduces Aurora A levels significantly | Aurora A levels (AA-as7-MDA cells; listed as 1-NM-PP 1): decreased Aurora A levels; also recorded: lower Aurora A levels

Kcat [4]: 2.75 s⁻¹ | Km [4]: 30.4 µM | Vmax [4]: 3.30 × 10^4 | Kcat [3, 5]: 54.2 s⁻¹ | Km [3, 5]: 17.7 µM | Vmax [3, 5]: 7.31 × 10^5 | Kcat (wild-type Aurora A; wild-type Aurora A): 31.3 s⁻¹ | Km (wild-type Aurora A; wild-type Aurora A): 16.2 µM | Vmax (wild-type Aurora A; wild-type Aurora A): 4.24 × 10^5 | Kcat (wild-type Aurora B): 4.27 s⁻¹ | Km (wild-type Aurora B): 23 µM | Vmax (wild-type Aurora B): 5.12 × 10^4
SMILES: Nc1ncnc2c1ncn2[C@@H]1O[C@H](COP(=O)(O)OP(=O)(O)OP(=O)(O)O)[C@@H](O)[C@H]1O [ATP]
